Results taken from patent US4906623A, “3-Imidazolium cephalosporin derivatives” (Otsuka Kagaku Kabushiki Kaisha, priority 1985, dated 1990).
Converted amounts (≈) assume the structure as drawn. Like-named read-outs stand apart in the source and are kept apart here.

Columns and labels:
Assay in all cases: in vitro anti-bacterial activity, two-fold agar plate dilution method
Assay type in all cases: cell-based
[1] = system: Escherichia coli NIHJ-JC2
Procedure: (§1) The agent for preventing and treating bacterial infections was tested for in vitro anti-bacterial activity by the following two-fold agar plate dilution method. Each test strain was incubated for 20 hours in a bouillon for measuring sensitivity to obtain a test culture (containing about […]). Portions of sensitivity measuring agar medium containing varying concentrations of the antibacterial agent were each innoculated with a 0.005 ml portion of the culture, followed by incubation at 37° C. for 20 hours. The minimum growth inhibitory concentration (MIC) in μg/ml was then determined.
(§2) MIC=minimum inhibitory concentration

Proteus mirabilis = system: Proteus mirabilis
Procedure: as §1, §2

Pseudomonas cepacia = details: 37° C., 20 hours
Procedure: as §1, §2

[2] = system: Staphylococcus aureus 209P
Procedure: as §1, §2

Proteus vulgaris = system: Proteus vulgaris
Procedure: as §1, §2

Serratia marcescens = system: Serratia marcescens
Procedure: as §1, §2

Pseudomonas aeruginosa = system: Pseudomonas aeruginosa
Procedure: as §1, §2

Klebsiella pneumoniae = system: Klebsiella pneumoniae
Procedure: as §1, §2

[3] = system: Escherichia coli CSH(RE45); details: 37° C., 20 hours
Procedure: as §1, §2

[4] = NIHJJC2, Escherichia coli NIHJ-JC2, agar dilution, 37° C., 20 hours, read-out: MIC
[5] = Burkholderia cepacia, read-out: MIC
[6] = Staphylococcus aureus 209P, agar dilution, 37° C., 20 hours, read-out: MIC
[7] = agar dilution, 37° C., 20 hours, read-out: MIC
[8] = agar dilution, 37° C., 20 hours

Question: With `CC(C)(O/N=C(\C(=O)NC1C(=O)N2C(C(=O)[O-])=C(C[n+]3ccn(-c4ccc(O)cc4)c3)CSC12)c1csc(N)n1)C(=O)O` (stereo not drawn) [O, 7-{2-(2-aminothiazole-4-yl)-2-[potassium(2,2-dimethylacetate)oxyimino]acetamide}-3-[3-(4-hydroxyphenyl)-1-imidazoliomethyl]-3-cephem-4-carboxylate] as the molecule, how does the MIC [1, 4] read?
Answer: Its MIC is 0.2 µg/mL.

Question: And the MIC (Proteus mirabilis; 20 h)?
Answer: The MIC was 0.2 µg/mL.

Question: What about the MIC (Pseudomonas cepacia; [5]) of the same molecule?
Answer: The MIC was 25 µg/mL.

Question: What about the MIC [2, 6] of the same molecule?
Answer: Its MIC is 6.25 µg/mL.

Question: What about the MIC (Proteus vulgaris; 20 h) of the same molecule?
Answer: The MIC was 0.1 µg/mL.

Question: And the MIC (Serratia marcescens; 20 h)?
Answer: Its MIC is 0.78 µg/mL.

Question: What about the MIC (Pseudomonas aeruginosa; [7]) of the same molecule?
Answer: The MIC was 6.25 µg/mL.

Question: What about the MIC (Klebsiella pneumoniae; 20 h) of the same molecule?
Answer: Its MIC is 0.78 µg/mL.

Question: And the MIC ([3]; read-out: MIC)?
Answer: Its MIC is 0.1 µg/mL.

Question: What does the source list for `C=CCON=C(C(=O)NC1C(=O)N2C(C(=O)[O-])=C(Cn3cc[n+](CC(=O)c4ccccc4)c3)CSC12)c1csc(N)n1` (stereo not drawn) [B, 7-[2-(2-aminothiazole-4-yl)-2-(2-propenyloxyimino)acetamide]-3-(3-acetophenyl-1-imidazoliomethyl)-3-cephem-4-carboxylate]?
Answer: MIC ([1]; Escherichia coli NIHJ-JC2, agar dilution, 37° C., 20 hours): 0.39 µg/mL (≈ 0.642 µM); MIC (Proteus mirabilis; [8]): 0.78 µg/mL (≈ 1.28 µM); MIC (Pseudomonas cepacia): 1.56 µg/mL (≈ 2.57 µM); MIC ([2]; Staphylococcus aureus 209P, agar dilution, 37° C., 20 hours): 0.20 µg/mL (≈ 0.329 µM); MIC (Proteus vulgaris; [8]): 0.78 µg/mL (≈ 1.28 µM); MIC (Serratia marcescens; [8]): 1.56 µg/mL (≈ 2.57 µM); MIC (Pseudomonas aeruginosa; [8]): 6.25 µg/mL (≈ 10.3 µM); MIC (Klebsiella pneumoniae; [8]): 0.39 µg/mL (≈ 0.642 µM); MIC [3]: 0.10 µg/mL (≈ 0.165 µM)

Question: `C#CCn1cc[n+](CC2=C(C(=O)[O-])N3C(=O)C(NC(=O)/C(=N\OC(C)(C)C(=O)O)c4csc(N)n4)C3SC2)c1` (stereo not drawn) [K, 7-{2-(2-aminothiazole-4-yl)-2-[potassium(2,2-dimethylacetate)oxyimino]acetamide}-3-[3-(2-propynyl)-1-imidazoliomethyl]-3-cephem-4-carboxylate] was tested. Which MIC ([1]; Escherichia coli, NIHJJC2, 20 h) did it give?
Answer: The MIC was 0.2 µg/mL.

Question: And the MIC (Proteus mirabilis; [7])?
Answer: Its MIC is 0.39 µg/mL.

Question: What about the MIC (Pseudomonas cepacia; [5]) of the same molecule?
Answer: Its MIC is 0.39 µg/mL.

Question: And the MIC [2, 6]?
Answer: The MIC was 12.5 µg/mL.

Question: What about the MIC (Proteus vulgaris; [7]) of the same molecule?
Answer: The MIC was 0.39 µg/mL.

Question: What about the MIC (Serratia marcescens; 20 h) of the same molecule?
Answer: The MIC was 0.78 µg/mL.

Question: What about the MIC (Pseudomonas aeruginosa; 20 h) of the same molecule?
Answer: Its MIC is 3.13 µg/mL.

Question: What about the MIC (Klebsiella pneumoniae; 20 h) of the same molecule?
Answer: The MIC was 0.78 µg/mL.

Question: What about the MIC ([3]; read-out: MIC) of the same molecule?
Answer: The MIC was 0.39 µg/mL.

Question: What does the source list for `C#CCn1cc[n+](CC2=C(C(=O)[O-])N3C(=O)C(NC(=O)/C(=N\OC)c4csc(N)n4)C3SC2)c1` (stereo not drawn) [Compound G, 7-[2-(2-aminothiazole-4-yl)-2-methoxyiminoacetamide]-3-[3-(2-propynyl)-1-imidazoliomethyl]-3-cephem-4-carboxylate]?
Answer: MIC [1, 4]: 0.05 µg/mL (≈ 0.0997 µM); MIC (Proteus mirabilis; 20 h): 0.2 µg/mL (≈ 0.399 µM); MIC (Pseudomonas cepacia; [5]): 25 µg/mL (≈ 49.8 µM); MIC [2, 6]: 0.78 µg/mL (≈ 1.56 µM); MIC (Proteus vulgaris; 20 h): 0.2 µg/mL (≈ 0.399 µM); MIC (Serratia marcescens; 20 h): 1.56 µg/mL (≈ 3.11 µM); MIC (Pseudomonas aeruginosa; [7]): 6.25 µg/mL (≈ 12.5 µM); MIC (Klebsiella pneumoniae; 20 h): 0.1 µg/mL (≈ 0.199 µM); MIC ([3]; read-out: MIC): 0.2 µg/mL (≈ 0.399 µM)

Question: How did the MIC [1, 4] turn out when `CC(C)(O/N=C(\C(=O)NC1C(=O)N2C(C(=O)[O-])=C(C[n+]3cn(Cc4ccccc4)c4ccccc43)CSC12)c1csc(N)n1)C(=O)O` (stereo not drawn) [P, 7-{2-(2-aminothiazole-4-yl)-2-[potassium(2,2-dimethylacetate)oxyimino]acetamide}-3-(benz-3-N-benzyl-1-imidazoliomethyl)-3-cephem-4-carboxylate] was run?
Answer: The MIC was 3.13 µg/mL.

Question: What about the MIC (Proteus mirabilis; 20 h) of the same molecule?
Answer: Its MIC is 3.13 µg/mL.

Question: And the MIC (Pseudomonas cepacia; [5])?
Answer: Its MIC is 50 µg/mL.

Question: What about the MIC [2, 6] of the same molecule?
Answer: The MIC was 3.13 µg/mL.

Question: And the MIC (Proteus vulgaris; 20 h)?
Answer: Its MIC is 1.56 µg/mL.

Question: What about the MIC (Serratia marcescens; [7]) of the same molecule?
Answer: The MIC was 6.25 µg/mL.

Question: What about the MIC (Pseudomonas aeruginosa; [7]) of the same molecule?
Answer: Its MIC is 6.25 µg/mL.

Question: What about the MIC (Klebsiella pneumoniae; [7]) of the same molecule?
Answer: The MIC was 6.25 µg/mL.

Question: What about the MIC ([3]; read-out: MIC) of the same molecule?
Answer: Its MIC is 1.56 µg/mL.

Question: For `C=CCO/N=C(\C(=O)NC1C(=O)N2C(C(=O)[O-])=C(C[n+]3ccn(CC=C)c3)CSC12)c1csc(N)n1` (stereo not drawn) [Compound A, 7-[2-(2-aminothiazole-4-yl)-2-(2-propenyloxyimino)acetamide]-3-[3-(2-propenyl)-1-imidazoliomethyl]-3-cephem-4-carboxylate], which MIC [1, 4] is on record?
Answer: The MIC was 0.78 µg/mL (≈ 1.47 µM).

Question: What about the MIC (Proteus mirabilis; 20 h) of the same molecule?
Answer: Its MIC is 3.13 µg/mL (≈ 5.91 µM).

Question: What about the MIC (Pseudomonas cepacia; [5]) of the same molecule?
Answer: Its MIC is 6.25 µg/mL (≈ 11.8 µM).

Question: What about the MIC [2, 6] of the same molecule?
Answer: Its MIC is 0.78 µg/mL (≈ 1.47 µM).

Question: And the MIC (Proteus vulgaris; 20 h)?
Answer: Its MIC is 1.56 µg/mL (≈ 2.95 µM).

Question: And the MIC (Serratia marcescens; 20 h)?
Answer: Its MIC is 0.78 µg/mL (≈ 1.47 µM).

Question: And the MIC (Pseudomonas aeruginosa; [7])?
Answer: Its MIC is 6.25 µg/mL (≈ 11.8 µM).

Question: What about the MIC (Klebsiella pneumoniae; 20 h) of the same molecule?
Answer: Its MIC is 1.56 µg/mL (≈ 2.95 µM).

Question: What about the MIC ([3]; read-out: MIC) of the same molecule?
Answer: Its MIC is 0.39 µg/mL (≈ 0.736 µM).

Question: What does the source list for `Cn1c[n+](CC2=C(C(=O)[O-])N3C(=O)C(NC(=O)/C(=N\OC(C)(C)C(=O)O)c4csc(N)n4)C3SC2)c2ccccc21` (stereo not drawn) [L, 7-{2-(2-aminothiazole-4-yl)-2-[potassium(2,2-dimethylacetate)oxyimino]acetamide}-3-(benz-3-N-methyl-1-imidazoliomethyl)-3-cephem-4-carboxylate]?
Answer: MIC [1, 4]: 0.2 µg/mL; MIC (Proteus mirabilis; [7]): 0.2 µg/mL; MIC (Pseudomonas cepacia; [5]): 6.25 µg/mL; MIC ([2]; Staphylococcus aureus, 209P, 20 h): 1.56 µg/mL; MIC (Proteus vulgaris; [7]): 0.2 µg/mL; MIC (Serratia marcescens; 20 h): 0.78 µg/mL; MIC (Pseudomonas aeruginosa; 20 h): 3.13 µg/mL; MIC (Klebsiella pneumoniae; 20 h): 0.78 µg/mL; MIC ([3]; read-out: MIC): 0.2 µg/mL

Question: With `CCCCn1c[n+](CC2=C(C(=O)[O-])N3C(=O)C(NC(=O)/C(=N\OC(C)(C)C(=O)O)c4csc(N)n4)C3SC2)c2ccccc21` (stereo not drawn) [T, 7-{2-(2-aminothiazole-4-yl)-2-[potassium(2,2-dimethylacetate)oxyimino]acetamide}-3-(benz-3-N-butyl-1-imidazoliomethyl)-3-cephem-4-carboxylate] as the molecule, how does the MIC [1, 4] read?
Answer: Its MIC is 1.56 µg/mL.

Question: And the MIC (Proteus mirabilis; 20 h)?
Answer: Its MIC is 3.13 µg/mL.

Question: What about the MIC (Pseudomonas cepacia; [5]) of the same molecule?
Answer: Its MIC is 25 µg/mL.

Question: And the MIC [2, 6]?
Answer: The MIC was 3.13 µg/mL.

Question: And the MIC (Proteus vulgaris; 20 h)?
Answer: The MIC was 0.78 µg/mL.

Question: And the MIC (Serratia marcescens; 20 h)?
Answer: Its MIC is 1.56 µg/mL.

Question: What about the MIC (Pseudomonas aeruginosa; [7]) of the same molecule?
Answer: The MIC was 6.25 µg/mL.

Question: What about the MIC (Klebsiella pneumoniae; 20 h) of the same molecule?
Answer: The MIC was 3.13 µg/mL.

Question: And the MIC ([3]; read-out: MIC)?
Answer: Its MIC is 0.39 µg/mL.

Question: `CCCCCCn1cc[n+](CC2=C(C(=O)[O-])N3C(=O)C(NC(=O)/C(=N\OC(C)(C)C(=O)O)c4csc(N)n4)C3SC2)c1` (stereo not drawn) [J, 7-{2-(2-aminothiazole-4-yl)-2-[potassium(2,2-dimethylacetate)oxyimino]acetamide}-3-(3-n-hexyl-1-imidazoliomethyl)-3-cephem-4-carboxylate] was tested. Which MIC [1, 4] did it give?
Answer: Its MIC is 0.78 µg/mL.

Question: And the MIC (Proteus mirabilis; 20 h)?
Answer: The MIC was 0.39 µg/mL.

Question: And the MIC (Pseudomonas cepacia; [5])?
Answer: Its MIC is 6.25 µg/mL.

Question: And the MIC [2, 6]?
Answer: Its MIC is 6.25 µg/mL.

Question: What about the MIC (Proteus vulgaris; [7]) of the same molecule?
Answer: The MIC was 0.2 µg/mL.

Question: What about the MIC (Serratia marcescens; [7]) of the same molecule?
Answer: The MIC was 0.78 µg/mL.

Question: And the MIC (Pseudomonas aeruginosa; [7])?
Answer: The MIC was 3.12 µg/mL.

Question: What about the MIC (Klebsiella pneumoniae; 20 h) of the same molecule?
Answer: The MIC was 1.56 µg/mL.

Question: And the MIC ([3]; read-out: MIC)?
Answer: Its MIC is 0.2 µg/mL.
